Test results from patent publication US11981669B2, “1,7-naphthyridine derivative and preparation method and use therefor” (CSPC ZHONGQI PHARMACEUTICAL TECHNOLOGY (SHIJIAZHUANG) CO., …, priority 2018, dated 2024).

Experiments:
PHD1 = PHD1 (Homo sapiens (Human), UniProt Q96KS0); test: PHD enzyme assay (Eu-VBC TR-fluorescence); type: biochemical
Experimental: (§1) VHL/elongin B/elongin C were constructed, expressed and purified, and VHL was labeled. PHD1, PHD2 and PHD3 were constructed, expressed and purified. VBC protein was labeled with DELFIA Eu-Labeling Kit. A NeutrAvidin 96-well plate was blocked after the addition of 200 μL Blocker Casein to each well, followed by incubation for 30 min. Each well was washed 3 times by adding 200 μL of washing buffer each time. A 200 nM HIF-1a 556-574 solution was prepared with washing buffer, and 100 μL of the solution was added to each well, followed by incubation for 60 min. Each well was washed 3 times by adding 200 μL of washing buffer each time. A 1 mM Biotin solution was prepared with Blocker Casein, and 100 μL of the solution was added to each well, followed by incubation for 30 min. Each well was washed 3 times by adding 200 μL of washing buffer each time. A 20× compound solution was prepared with PHD reaction buffer, with the final concentration of DMSO being 1%. PHD solutions were prepared with PHD reaction buffer, and the concentrations of PHD1, 2, and 3 solutions were 10 ng/μL, 5 ng/μL, and 15 ng/μL, respectively. 95 μL of the PHD solution was added to each compound well, followed by the addition of 5 μL of the compound solution, 95 μL of the PHD solution was added to each full active well, followed by the addition of 5 μL of the PHD reaction buffer; and 100 μL of the PHD reaction buffer was added to each blank well. After mixing homogeneously, the wells were incubated for 60 min. Each well was washed 3 times by adding 200 μL of washing buffer each time A 1 ng/μL Eu-VBC solution was prepared with Eu-VBC binding buffer, and 100 μL of the solution was added to each well, followed by incubation for 60 min. Each well was washed 6 times by adding 200 μL DELFIA Wash Concentrate each time. 100 μL DELFIA Enhancement Solution was added to each well. A microplate reader was used to read TR-Fluorescence at Ex340 and Em615. The flurescence of the sample wells was recorded as FLUsample, the flurescence of the full active wells was recorded as FLU100%, and the flurescence of the blank well was recorded as FLU0%.

PHD3 = PHD3 (Homo sapiens (Human), UniProt Q9H6Z9); test: PHD enzyme assay (Eu-VBC TR-fluorescence); type: biochemical
Chain of PHD3 (Q9H6Z9 whole entry): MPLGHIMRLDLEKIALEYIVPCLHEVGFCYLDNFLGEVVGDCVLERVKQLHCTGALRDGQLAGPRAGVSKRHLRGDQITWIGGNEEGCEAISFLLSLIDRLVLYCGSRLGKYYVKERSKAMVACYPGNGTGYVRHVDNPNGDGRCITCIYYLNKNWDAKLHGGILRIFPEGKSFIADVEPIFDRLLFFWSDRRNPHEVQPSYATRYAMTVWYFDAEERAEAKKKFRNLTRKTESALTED
Experimental: as §1

PHD2 = PHD2 (Homo sapiens (Human), UniProt Q9GZT9); test: PHD enzyme assay (Eu-VBC TR-fluorescence); type: biochemical
Chain of PHD2 (Q9GZT9 whole entry): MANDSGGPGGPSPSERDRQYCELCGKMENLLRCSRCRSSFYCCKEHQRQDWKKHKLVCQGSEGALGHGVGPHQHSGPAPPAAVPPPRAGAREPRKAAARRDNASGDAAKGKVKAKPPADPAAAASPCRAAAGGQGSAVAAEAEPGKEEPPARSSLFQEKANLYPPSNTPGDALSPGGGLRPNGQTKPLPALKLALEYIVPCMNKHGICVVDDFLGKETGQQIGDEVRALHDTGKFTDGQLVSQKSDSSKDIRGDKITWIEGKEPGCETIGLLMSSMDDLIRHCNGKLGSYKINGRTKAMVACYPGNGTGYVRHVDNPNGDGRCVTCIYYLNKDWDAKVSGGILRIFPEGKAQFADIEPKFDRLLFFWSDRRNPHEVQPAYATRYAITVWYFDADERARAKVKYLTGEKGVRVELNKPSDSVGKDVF
Experimental: as §1, with “A 200 nM HIF-1a 556-574 solution was prepared with washing buffer, and 100 μL of the solution was added to each well, followed by incubation for 60 min.” left out, “PHD solutions were prepared with PHD reaction buffer, and the concentrations of PHD1, 2, and 3 solutions were 10 ng/μL, 5 ng/μL, and 15 ng/μL, respectively. 95 μL of the PHD solution was added to each compound well, followed by the addition of 5 μL of the compound solution, 95 μL of the PHD solution was added to each full active well, followed by the addition of 5 μL of the PHD reaction buffer; and 100 μL of the PHD reaction buffer was added to each blank well.” left out, “A microplate reader was used to read TR-Fluorescence at Ex340 and Em615.” left out

[1] = tested on: Erythropoietin in liver cancer cells Hep3B; test: Expression of erythropoietin in liver cancer cells Hep3B in vitro (EPO ELISA of supernatant); type: cell-based, Human
Experimental: The cells were adherent cultured overnight, and after discarding the used medium. In the 96-well culture plate, the cells were washed once with 0.5% FBS-containing DMEM medium. […] 0.5% FBS-containing DMEM medium was used instead of the drug solution as the control well. After incubation in a 37° C., 5% CO2 incubator for 24 h, the supernatant was taken as a sample and frozen at −20° C. for later use. An Elisa kit (abeam) was used to detect EPO in the cell supernatant. A microplate reader was used to detect the OD value at 450/620 nm.

reticulocytes = test: Effect on reticulocytes of normal mice; type: in vivo, Balb/c mice; set-up: Reticulocytes (RETIC), average: unit not given here; conditions: 10 mg/kg p.o., once; 72 h after administration
Experimental: 72 Balb/c mice, male, were divided into 12 groups, 6 mice in each treatment group. In the positive drug control groups: the mice in the FG-4592 treatment groups were orally administered once, at two doses of 10 mg/kg and 50 mg/kg, and the mice in the rhEPO treatment group was intraperitoneaily injected once, at a dose of 100 IU/kg. The compounds of the present disclosure were all orally administered once at a dose of 10 mg/kg. 72 h after the administration, blood was collected from the orbit of all animals, and subjected to EDTA-K2 anticoagulation. Then reticulocytes (RETIC) were counted with an automatic blood cell analyzer.

HIF-1α = test: Expression of HIF-1α protein in Hep3B cells (western blot, grayscale analysis); type: cell-based, Human; conditions: for fold induction at 30 µM: Homo sapiens, read-out: HIF-1α level of the compound of the present disclosure/HIF-1α level of blank control
Experimental: (§2) A test compound was dissolved in dimethyl sulfoxide into a 100 mM stock solution, and then was diluted with 0.5% FBS-containing DMEM medium into 30 μM, 10 μM and 3 μM for later use. Human liver cancer cells Hep3B were seeded in a six-well plate at a density of 2.25*10^5 cells/well, 2 mL per well. After cultivation overnight, the cells were treated with compounds at different concentrations for 2 h. The proteins were extracted for western blot and further grayscale analysis.

HIF-2α = test: Expression of HIF-2α protein in Hep3B cells (western blot, grayscale analysis); type: cell-based, Human; conditions: for fold induction at 30 µM: Homo sapiens, read-out: HIF-2α level of the compound of the present disclosure/HIF-2α level of blank control
Experimental: as §2

CYP1A2 = CYP1A2 (Homo sapiens (Human), UniProt P05177); type: in vitro ADME
Chain of CYP1A2 (P05177 whole entry): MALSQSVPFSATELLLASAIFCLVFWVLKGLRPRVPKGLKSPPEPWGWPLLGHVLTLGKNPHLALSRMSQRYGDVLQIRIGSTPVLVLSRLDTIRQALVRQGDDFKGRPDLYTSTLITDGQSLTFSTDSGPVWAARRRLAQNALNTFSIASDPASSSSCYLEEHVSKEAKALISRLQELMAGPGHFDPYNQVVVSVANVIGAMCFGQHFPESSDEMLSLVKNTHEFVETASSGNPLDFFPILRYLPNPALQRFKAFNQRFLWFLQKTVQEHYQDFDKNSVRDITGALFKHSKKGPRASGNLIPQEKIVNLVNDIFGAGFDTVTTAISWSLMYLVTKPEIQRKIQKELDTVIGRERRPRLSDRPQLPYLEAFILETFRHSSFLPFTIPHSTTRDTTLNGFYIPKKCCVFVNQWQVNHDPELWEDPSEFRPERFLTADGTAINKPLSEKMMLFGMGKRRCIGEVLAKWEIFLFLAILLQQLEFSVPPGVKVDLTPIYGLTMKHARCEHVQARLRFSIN
Description: (§3) The compounds of the present disclosure were subjected to the CYP450 enzyme inhibition assay.

CYP2C19 = CYP2C19 (Homo sapiens (Human), UniProt P33261); test: CYP enzyme inhibition assay; type: in vitro ADME
Chain of CYP2C19 (P33261 whole entry): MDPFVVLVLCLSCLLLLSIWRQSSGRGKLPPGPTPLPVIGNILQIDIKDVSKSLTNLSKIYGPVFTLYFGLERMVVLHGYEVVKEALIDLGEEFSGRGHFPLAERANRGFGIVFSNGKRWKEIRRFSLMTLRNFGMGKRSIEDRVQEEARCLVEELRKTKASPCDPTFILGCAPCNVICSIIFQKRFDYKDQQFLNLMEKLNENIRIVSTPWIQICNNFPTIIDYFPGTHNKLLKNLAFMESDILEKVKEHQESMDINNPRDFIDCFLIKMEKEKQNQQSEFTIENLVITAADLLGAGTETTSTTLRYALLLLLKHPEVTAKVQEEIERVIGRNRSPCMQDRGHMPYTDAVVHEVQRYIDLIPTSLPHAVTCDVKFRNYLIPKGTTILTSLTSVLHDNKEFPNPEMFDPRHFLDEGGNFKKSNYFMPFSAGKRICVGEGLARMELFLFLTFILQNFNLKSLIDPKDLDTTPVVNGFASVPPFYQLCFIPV
Description: as §3

CYP2C9 = CYP2C9 (Homo sapiens (Human), UniProt P11712); test: CYP enzyme inhibition assay; type: in vitro ADME
Chain of CYP2C9 (P11712 whole entry): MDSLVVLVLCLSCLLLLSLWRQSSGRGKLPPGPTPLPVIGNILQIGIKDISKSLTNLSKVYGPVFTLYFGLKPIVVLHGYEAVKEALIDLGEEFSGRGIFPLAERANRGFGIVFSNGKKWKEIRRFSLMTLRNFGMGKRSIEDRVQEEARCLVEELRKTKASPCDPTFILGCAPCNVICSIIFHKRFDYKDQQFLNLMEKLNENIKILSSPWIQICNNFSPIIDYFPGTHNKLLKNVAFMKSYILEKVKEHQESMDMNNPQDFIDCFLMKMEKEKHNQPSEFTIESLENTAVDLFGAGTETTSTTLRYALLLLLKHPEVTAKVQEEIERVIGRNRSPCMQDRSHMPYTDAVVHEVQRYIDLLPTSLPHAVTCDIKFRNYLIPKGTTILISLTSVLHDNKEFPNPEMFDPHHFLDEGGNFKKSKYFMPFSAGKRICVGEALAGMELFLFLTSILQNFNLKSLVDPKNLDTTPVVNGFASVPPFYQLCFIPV
Description: as §3

CYP2D6 = CYP2D6 (Homo sapiens (Human), UniProt P10635); test: CYP enzyme inhibition assay; type: in vitro ADME
Chain of CYP2D6 (P10635 whole entry): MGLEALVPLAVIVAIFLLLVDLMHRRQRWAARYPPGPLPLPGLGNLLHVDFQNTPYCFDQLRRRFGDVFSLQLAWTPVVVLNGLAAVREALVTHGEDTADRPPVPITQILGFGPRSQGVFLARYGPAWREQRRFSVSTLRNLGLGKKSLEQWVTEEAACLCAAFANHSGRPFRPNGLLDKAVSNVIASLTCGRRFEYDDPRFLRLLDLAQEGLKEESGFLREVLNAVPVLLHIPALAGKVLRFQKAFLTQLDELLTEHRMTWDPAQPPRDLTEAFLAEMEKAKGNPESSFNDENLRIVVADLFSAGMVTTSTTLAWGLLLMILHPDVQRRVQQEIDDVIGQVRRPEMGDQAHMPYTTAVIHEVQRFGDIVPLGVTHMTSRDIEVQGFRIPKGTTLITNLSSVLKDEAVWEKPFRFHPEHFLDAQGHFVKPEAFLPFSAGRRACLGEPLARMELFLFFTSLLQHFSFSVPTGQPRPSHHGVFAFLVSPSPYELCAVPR
Description: as §3

CYP3A4-M = CYP3A4-M (Homo sapiens (Human), UniProt P08684); test: CYP enzyme inhibition assay; type: in vitro ADME
Chain of CYP3A4-M (P08684 whole entry): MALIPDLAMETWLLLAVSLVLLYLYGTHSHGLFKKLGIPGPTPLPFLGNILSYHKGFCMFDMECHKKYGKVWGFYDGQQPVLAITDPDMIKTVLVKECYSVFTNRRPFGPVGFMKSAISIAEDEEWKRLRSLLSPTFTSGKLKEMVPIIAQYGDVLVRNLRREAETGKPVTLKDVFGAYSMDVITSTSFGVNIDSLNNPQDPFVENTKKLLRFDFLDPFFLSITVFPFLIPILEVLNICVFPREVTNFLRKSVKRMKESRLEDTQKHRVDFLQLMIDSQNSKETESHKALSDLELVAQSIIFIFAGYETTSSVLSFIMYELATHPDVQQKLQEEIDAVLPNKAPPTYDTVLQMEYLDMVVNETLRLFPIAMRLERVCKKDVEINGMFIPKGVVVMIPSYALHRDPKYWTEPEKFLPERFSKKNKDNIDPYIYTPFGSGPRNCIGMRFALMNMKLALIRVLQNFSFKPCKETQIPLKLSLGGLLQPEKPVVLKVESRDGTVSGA
Description: as §3

hERG channels = hERG channels (Homo sapiens (Human), UniProt Q12809); test: cell-based; type: cell-based; conditions: for Inhibitory effect on hERG current at the highest test concentration: human, 30 μM
Chain of hERG channels (Q12809 whole entry, the tested form may be a part): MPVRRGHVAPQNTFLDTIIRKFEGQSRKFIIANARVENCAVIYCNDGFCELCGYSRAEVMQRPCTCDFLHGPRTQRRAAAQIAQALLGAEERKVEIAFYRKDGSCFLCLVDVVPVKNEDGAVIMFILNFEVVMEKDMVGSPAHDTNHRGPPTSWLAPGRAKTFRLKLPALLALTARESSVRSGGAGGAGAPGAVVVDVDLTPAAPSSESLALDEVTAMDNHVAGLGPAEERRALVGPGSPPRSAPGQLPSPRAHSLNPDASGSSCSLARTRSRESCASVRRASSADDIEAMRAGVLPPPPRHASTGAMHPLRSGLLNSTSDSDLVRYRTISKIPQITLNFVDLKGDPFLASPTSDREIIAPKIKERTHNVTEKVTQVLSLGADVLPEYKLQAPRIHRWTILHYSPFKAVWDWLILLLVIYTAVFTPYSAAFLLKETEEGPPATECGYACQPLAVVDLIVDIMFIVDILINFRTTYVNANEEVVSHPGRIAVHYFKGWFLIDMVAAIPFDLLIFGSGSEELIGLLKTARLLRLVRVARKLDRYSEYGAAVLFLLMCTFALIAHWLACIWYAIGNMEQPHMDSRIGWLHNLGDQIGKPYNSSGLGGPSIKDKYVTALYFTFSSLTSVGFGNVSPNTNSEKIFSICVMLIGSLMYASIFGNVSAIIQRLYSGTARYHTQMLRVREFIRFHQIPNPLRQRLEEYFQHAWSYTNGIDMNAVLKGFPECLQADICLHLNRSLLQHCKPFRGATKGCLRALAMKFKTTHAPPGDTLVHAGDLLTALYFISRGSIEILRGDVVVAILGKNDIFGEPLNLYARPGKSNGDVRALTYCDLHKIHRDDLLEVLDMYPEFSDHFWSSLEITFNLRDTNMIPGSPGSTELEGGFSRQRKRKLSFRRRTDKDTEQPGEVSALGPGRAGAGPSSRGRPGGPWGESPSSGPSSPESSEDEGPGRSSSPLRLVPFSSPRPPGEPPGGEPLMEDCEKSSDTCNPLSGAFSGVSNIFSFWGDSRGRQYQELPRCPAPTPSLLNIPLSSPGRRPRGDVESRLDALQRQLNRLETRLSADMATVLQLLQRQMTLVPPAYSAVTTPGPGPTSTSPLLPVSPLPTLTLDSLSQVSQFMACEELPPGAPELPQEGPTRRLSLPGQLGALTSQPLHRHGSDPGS
Experimental: Whole-cell patch clamp technique was used to record hERG current. A cell suspension was added to a 35 mm Petri dish, and the dish was then placed on an inverted microscope stage. After the adherence of cells, they were perfused with extracellular fluid at a flow rate of 1-2 mL/min. A glass microelectrode was drawn by a microelectrode puller in two steps, and the pipette tip resistance was between 2-5 MΩ. After establishing the whole cell recording, the clamp potential was held at −80 mV, followed by depolarization to +60 mV when given voltage stimulation and then repolarization to −50 mV to elicit hERG tail current. All recordings were performed after the current was stable. Extracellular perfusion administration started from a low concentration, staying for 5-10 min at each concentration until the current was stable, and then cells were further perfused with the next concentration.

erythropoietin = test: Expression of erythropoietin in vivo (plasma EPO ELISA after single oral dose); conditions: once; for EPO OD value: plasma 6 hours after administration; for Promotion of expression of erythropoietin in vivo: at 10 mg/kg;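 for all read-outs here: male C57 mice given compound by mouth, five animals per treatment group, with EPO in plasma measured by ELISA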
Experimental: (2) 30 c57 mice, male, were divided into 6 groups, 5 mice in each treatment group. […] 6 hours after the administration, blood was taken, and plasma was collected for EPO detection with an ELISA kit (R&D Co.).

[2] = 2 h, compound at 30 μM, 10 μM and 3 μM

Chain of PHD1 (Q96KS0 whole entry): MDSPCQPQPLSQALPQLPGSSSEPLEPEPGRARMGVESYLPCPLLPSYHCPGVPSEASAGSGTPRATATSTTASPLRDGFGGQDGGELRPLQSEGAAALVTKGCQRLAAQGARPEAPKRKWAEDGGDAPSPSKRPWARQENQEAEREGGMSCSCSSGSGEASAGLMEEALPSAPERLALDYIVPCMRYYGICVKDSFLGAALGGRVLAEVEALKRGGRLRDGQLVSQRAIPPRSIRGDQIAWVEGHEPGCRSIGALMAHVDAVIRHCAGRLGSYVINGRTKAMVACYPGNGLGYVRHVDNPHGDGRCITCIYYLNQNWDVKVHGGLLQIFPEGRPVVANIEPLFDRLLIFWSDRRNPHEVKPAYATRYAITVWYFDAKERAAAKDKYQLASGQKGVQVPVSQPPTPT

| SMILES | IC50 (PHD1) | IC50 (PHD3) | EPO-enhancing effect compared with positive control drug FG4592 [1] | Reticulocytes (RETIC), average (reticulocytes) | HIF-1α protein expression compared with blank control (HIF-1α) | fold induction at 30 µM (HIF-1α; [2]) | HIF-2α protein expression compared with blank control (HIF-2α) | fold induction at 30 µM (HIF-2α; [2]) | IC50 (CYP1A2) | IC50 (CYP2C19) | IC50 (CYP2C9) | IC50 (CYP2D6) | IC50 (CYP3A4-M) | IC50 (hERG channels) | Inhibitory effect on hERG current at the highest test concentration (hERG channels) | EPO OD value (erythropoietin; 10 mg/kg) | EPO OD value (erythropoietin; 50 mg/kg) | Promotion of expression of erythropoietin in vivo (erythropoietin) | further results |
| --- | --- | --- | --- | --- | --- | --- | --- | --- | --- | --- | --- | --- | --- | --- | --- | --- | --- | --- | --- |
| O=C(O)CNC(=O)c1nc(Cl)c2cc(Oc3ccccc3)ccc2c1O [Comparative Example 1, reference compound] | 273 nM | 561 nM |  |  |  |  |  |  |  |  |  |  |  |  |  |  |  |  |  |
| O=C(O)CNC(=O)c1ncc2nc(Oc3ccccc3)ccc2c1O [Comparative Example 2, 2-(5-hydroxy-2-phenoxy-1,7-naphthyridine-6-formamido) acetic acid, reference compound] | 335 nM | 492 nM |  |  |  |  |  |  |  |  |  |  |  |  |  |  |  |  |  |
| O=C(O)CNC(=O)c1nc(Br)c2cc(Oc3ccccc3)ccc2c1O [Comparative Example 3, reference compound] | 452 nM | 544 nM |  |  |  |  |  |  |  |  |  |  |  |  |  |  |  |  | IC50 (PHD2): 951 nM |
| O=C(O)CNC(=O)c1nc(Cl)c2nc(Oc3ccccc3Cl)ccc2c1O [Link-124, 2-(2-(2-chlorophenoxy)-5-hydroxy-8-chloro-1,7-naphthyridine-6-formamido) Acetic Acid] |  |  | higher than that of the positive control drug FG4592 | 6.80 | higher than that of the blank control | 4.5 to 8.5 | higher than that of the blank control | 4.5 to 8.5 | > 50 µM | > 50 µM | > 50 µM | > 50 µM | > 50 µM | > 30 µM | far from the IC50 value | D (D represents EPO OD value>3) | D (D represents EPO OD value>3) | significantly promote the expression of erythropoietin |  |
| O=C(O)CNC(=O)c1nc(Br)c2nc(Oc3ccc(Cl)cc3)ccc2c1O [Link-129, 2-(2-(4-chlorophenoxy)-5-hydroxy-8-bromo-1,7-naphthyridine-6-formamido) Acetic Acid] |  |  |  | 7.30 | higher than that of the blank control | 1 to 4.5 | higher than that of the blank control | 1 to 4.5 | > 50 µM | > 50 µM | > 50 µM | > 50 µM | > 50 µM | > 30 µM | far from the IC50 value | D (D represents EPO OD value>3) | D (D represents EPO OD value>3) | significantly promote the expression of erythropoietin |  |
| O=C(O)CNC(=O)c1nc(Cl)c2nc(Oc3ccc(F)cc3)ccc2c1O [Link-130, 2-(2-(4-fluorophenoxy)-5-hydroxy-8-chloro-1,7-naphthyridine-6-formamido) Acetic Acid] |  |  | higher than that of the positive control drug FG4592 |  | higher than that of the blank control |  | higher than that of the blank control |  |  |  |  |  |  |  |  | C (C represents 2<EPO OD value<3) | D (D represents EPO OD value>3) | significantly promote the expression of erythropoietin | EPO level of the compound of the present disclosure/EPO level of FG4592 ([1]; 24 h, compound at 100 μM and 10 μM, supernatant ELISA): C (C represents EPO ratio ≥ 1.3); HIF-1α level of the compound of the present disclosure/HIF-1α level of blank control (HIF-1α; [2]): B (B represents 4.5 < protein ratio < 8.5); HIF-2α level of the compound of the present disclosure/HIF-2α level of blank control (HIF-2α; [2]): B (B represents 4.5 < protein ratio < 8.5) |
